Reference: patent US12043632B2, “6-heteroaryloxy benzimidazoles and azabenzimidazoles as JAK2 inhibitors” (Ajax Therapeutics, Inc., priority 2020, dated 2024)

target: T1, JAK2 (JH1domain-catalytic, Y1007F,Y1008F) kinase (Homo sapiens, UniProt O60674, Y1007F/Y1008F); assay: JAK2 JH1 Domain Binding Assay; conditions: qPCR readout
T1 construct: JAK2 (JH1domain-catalytic, Y1007F,Y1008F) kinase was expressed as N-terminal fusion; made in house; host or cells: transiently transfected HEK293 cells
T1 sequence (O60674 849-1124 Y1007F/Y1008F limits assumed): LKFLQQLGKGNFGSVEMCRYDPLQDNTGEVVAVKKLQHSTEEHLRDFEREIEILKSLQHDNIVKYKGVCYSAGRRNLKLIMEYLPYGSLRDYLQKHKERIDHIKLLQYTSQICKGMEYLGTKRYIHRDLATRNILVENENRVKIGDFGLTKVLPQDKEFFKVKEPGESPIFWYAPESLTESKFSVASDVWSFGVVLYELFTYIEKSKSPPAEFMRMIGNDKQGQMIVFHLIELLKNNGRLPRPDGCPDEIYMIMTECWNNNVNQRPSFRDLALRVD

Compound | Kd [nM]
Cn1c(Nc2cc(C(C)(C)C)n(C3CC4(COC4)C3)n2)nc2ncc(Oc3cnn4ccnc4c3)c(Cl)c21 [Example I-33, N-(5-(tert-butyl)-1-(2-oxaspiro[3.3]heptan-6-yl)-1H-pyrazol-3-yl)-7-chloro-6-(imidazo[1,2-b]pyridazin-7-yloxy)-1-methyl-1H-imidazo[4,5-b]pyridin-2-amine] | 10 to 50
CNc1nccn2ncc(Oc3cnc4nc(Nc5ccc(CN6CC[C@@H](OC)C6)c(C(F)(F)F)c5)n(C)c4c3Cl)c12 [Example I-192] | 10 to 50
CNc1nccn2ncc(Oc3cnc4nc(Nc5cc6c(c(C(F)(F)F)c5)C(C)(C)N(C)C6=O)n(C)c4c3C#N)c12 [Example I-240, 1-methyl-6-((4-(methylamino)pyrazolo[1,5-a]pyrazin-3-yl)oxy)-2-((1,1,2-trimethyl-3-oxo-7-(trifluoromethyl)isoindolin-5-yl)amino)-1H-imidazo[4,5-b]pyridine-7-carbonitrile] | 50 to 1000
CNc1nccn2ncc(Oc3cnc4nc(Nc5cc(C(C)(C)C)n([C@@H]6CCN(C)C6)n5)n(C)c4c3Cl)c12 [Example I-252, (R)—N-(5-(tert-butyl)-1-(1-methylpyrrolidin-3-yl)-1H-pyrazol-3-yl)-7-chloro-1-methyl-6-((4-(methylamino)pyrazolo[1,5-a]pyrazin-3-yl)oxy)-1H-imidazo[4,5-b]pyridin-2-amine] | 10 to 50
CNc1nccn2ncc(Oc3cnc4nc(Nc5cc([C@@H]6CCOC6)nc(C(F)(F)F)c5)n(C)c4c3Cl)c12 (single isomer, unassigned) [Example I-280-a] | 10 to 50
Cn1c(Nc2cc3n(n2)CCCC3(F)F)nc2ncc(Oc3cnn4ccncc34)c(C#N)c21 [Example I-362, 2-((4,4-difluoro-4,5,6,7-tetrahydropyrazolo[1,5-a]pyridin-2-yl)amino)-1-methyl-6-(pyrazolo[1,5-a]pyrazin-3-yloxy)-1H-imidazo[4,5-b]pyridine-7-carbonitrile] | 10 to 50
Cc1nc(Nc2nc3ncc(Oc4cnn5ccncc45)c(Cl)c3n2C)nc(C)c1N1CCCC1 [Example I-287, 7-chloro-N-(4,6-dimethyl-5-(pyrrolidin-1-yl)pyrimidin-2-yl)-1-methyl-6-(pyrazolo[1,5-a]pyrazin-3-yloxy)-1H-imidazo[4,5-b]pyridin-2-amine] | 10 to 50
Cn1c(Nc2nc([C@H]3CCOC3)c(C(C)(C)C)s2)nc2ncc(Oc3cnn4ccnc4c3)c(Cl)c21 (single isomer, unassigned) [Example I-56-a] | 10 to 50
CNc1cn2ncc(Oc3cnc4nc(Nc5cc(C(C)(C)C)n([C@@H]6CCN(C)C6)n5)n(C)c4c3Cl)c2cn1 [Example I-347, (R)—N-(5-(tert-butyl)-1-(1-methylpyrrolidin-3-yl)-1H-pyrazol-3-yl)-7-chloro-1-methyl-6-((6-(methylamino)pyrazolo[1,5-a]pyrazin-3-yl)oxy)-1H-imidazo[4,5-b]pyridin-2-amine] | 50 to 1000
COc1c(Oc2cnc3sccc3c2)cnc2nc(Nc3cc(C(C)(C)C)n([C@@H]4CCN(C)C4)n3)n(C)c12 [Example I-46, (R)—N-(5-(tert-butyl)-1-(1-methylpyrrolidin-3-yl)-1H-pyrazol-3-yl)-7-methoxy-1-methyl-6-(thieno[2,3-b]pyridin-5-yloxy)-1H-imidazo[4,5-b]pyridin-2-amine] | 50 to 1000
Cn1c(Nc2cc(C(C)(C)C)n([C@H]3CCO[C@@H]3CO)n2)nc2ncc(Oc3cnc4cnc(C5CC5)n4c3)c(Cl)c21 [Example I-87, ((2S,3S)-3-(5-(tert-butyl)-3-((7-chloro-6-((6-cyclopropylimidazo[1,5-a]pyrimidin-3-yl)oxy)-1-methyl-1H-imidazo[4,5-b]pyridin-2-yl)amino)-1H-pyrazol-1-yl)tetrahydrofuran-2-yl)methanol] | 10 to 50
Cc1cc2ncc(Oc3cnc4nc(Nc5cc(C(C)(C)C)n([C@H]6CCOC6)n5)n(C)c4c3Cl)cn2n1 [Example I-6, (S)—N-(5-(tert-butyl)-1-(tetrahydrofuran-3-yl)-1H-pyrazol-3-yl)-7-chloro-1-methyl-6-((2-methylpyrazolo[1,5-a]pyrimidin-6-yl)oxy)-1H-imidazo[4,5-b]pyridin-2-amine] | 10 to 50
Cn1c(Nc2cc(C(C)(C)C)n([C@H]3CCN(CCF)C3)n2)nc2ncc(Oc3cnn4ccnc4c3)c(Cl)c21 [Example I-25, (S)—N-(5-(tert-butyl)-1-(1-(2-fluoroethyl)pyrrolidin-3-yl)-1H-pyrazol-3-yl)-7-chloro-6-(imidazo[1,2-b]pyridazin-7-yloxy)-1-methyl-1H-imidazo[4,5-b]pyridin-2-amine] | 10 to 50
Cn1c(Nc2cc(C(F)(F)F)cn(CCCN3CCCC(F)(F)C3)c2=O)nc2ncc(Oc3cnn4ccncc34)c(Cl)c21 [Example I-138, 3-((7-chloro-1-methyl-6-(pyrazolo[1,5-a]pyrazin-3-yloxy)-1H-imidazo[4,5-b]pyridin-2-yl)amino)-1-(3-(3,3-difluoropiperidin-1-yl)propyl)-5-(trifluoromethyl)pyridin-2(1H)-one] | 10 to 50
Cn1c(Nc2cc(C(C)(C)C)n([C@H]3CCO[C@@H]3CO)n2)nc2ncc(Oc3cnn4ccnc4c3)c(Cl)c21 [Example I-83, ((2S,3S)-3-(5-(tert-butyl)-3-((7-chloro-6-(imidazo[1,2-b]pyridazin-7-yloxy)-1-methyl-1H-imidazo[4,5-b]pyridin-2-yl)amino)-1H-pyrazol-1-yl)tetrahydrofuran-2-yl)methanol] | 10 to 50
Cn1c(Nc2cc(C(F)(F)F)n(C3CC4(COC4)C3)n2)nc2ncc(Oc3cnc4[nH]ccc4c3)c(C#N)c21 [Example I-322, 6-((1H-pyrrolo[2,3-b]pyridin-5-yl)oxy)-2-((1-(2-oxaspiro[3.3]heptan-6-yl)-5-(trifluoromethyl)-1H-pyrazol-3-yl)amino)-1-methyl-1H-imidazo[4,5-b]pyridine-7-carbonitrile] | 10 to 50
COc1c(Oc2cnn3ccncc23)cnc2nc(Nc3cc(C4CC4)cn([C@@H](C)CC#N)c3=O)n(C)c12 (single isomer, unassigned) [Example I-121-a] | < 10
CNc1cn2ncc(Oc3cnc4nc(Nc5cc(OC[C@@H]6CCCN6C)cc(C(F)(F)F)c5)n(C)c4c3Cl)c2cn1 [Example I-331, (S)-7-chloro-1-methyl-6-((6-(methylamino)pyrazolo[1,5-a]pyrazin-3-yl)oxy)-N-(3-((1-methylpyrrolidin-2-yl)methoxy)-5-(trifluoromethyl)phenyl)-1H-imidazo[4,5-b]pyridin-2-amine] | < 10

Continued, values first:

Kd [nM] | Compound
< 10 | CNc1nccn2ncc(Oc3cnc4nc(Nc5cc(C(F)(F)F)cn(C(C)C)c5=O)n(C)c4c3Cl)c12 [Example I-202, 3-((7-chloro-1-methyl-6-((4-(methylamino)pyrazolo[1,5-a]pyrazin-3-yl)oxy)-1H-imidazo[4,5-b]pyridin-2-yl)amino)-1-isopropyl-5-(trifluoromethyl)pyridin-2(1H)-one]
< 10 | Cc1n[nH]c2ncc(Oc3cnc4nc(Nc5cc(C(C)(C)C)n([C@@H]6CCOC6)n5)n(C)c4c3)cc12 [Example I-3]
< 10 | CNc1cn2ncc(Oc3cnc4nc(Nc5nn6c(c5F)COC(C)(C)C6)n(C)c4c3Cl)c2cn1 [Example I-309, N-(7-chloro-1-methyl-6-((6-(methylamino)pyrazolo[1,5-a]pyrazin-3-yl)oxy)-1H-imidazo[4,5-b]pyridin-2-yl)-3-fluoro-6,6-dimethyl-6,7-dihydro-4H-pyrazolo[5,1-c][1,4]oxazin-2-amine]
< 10 | CNc1cn2ncc(Oc3cnc4nc(Nc5cc6n(n5)CCCC6(C)C)n(C)c4c3Cl)c2cn1 [Example I-338, 7-chloro-N-(4,4-dimethyl-4,5,6,7-tetrahydropyrazolo[1,5-a]pyridin-2-yl)-1-methyl-6-((6-(methylamino)pyrazolo[1,5-a]pyrazin-3-yl)oxy)-1H-imidazo[4,5-b]pyridin-2-amine]
< 10 | CNc1nccn2ncc(Oc3cnc4nc(Nc5cc(CN6CCC6)cc(C(F)(F)F)c5)n(C)c4c3Cl)c12 [Example I-263, N-(3-(azetidin-1-ylmethyl)-5-(trifluoromethyl)phenyl)-7-chloro-1-methyl-6-((4-(methylamino)pyrazolo[1,5-a]pyrazin-3-yl)oxy)-1H-imidazo[4,5-b]pyridin-2-amine]
< 10 | CNc1cc(F)c2c(Oc3cnc4nc(Nc5cc(C(F)(F)F)cn(C)c5=O)n(C)c4c3C#N)cnn2c1 [Example I-395, 6-((4-fluoro-6-(methylamino)pyrazolo[1,5-a]pyridin-3-yl)oxy)-1-methyl-2-((1-methyl-2-oxo-5-(trifluoromethyl)-1,2-dihydropyridin-3-yl)amino)-1H-imidazo[4,5-b]pyridine-7-carbonitrile]
< 10 | CNc1cn2ncc(Oc3cnc4nc(Nc5cc(C(F)(F)F)cn(C(C)C)c5=O)n(C)c4c3Cl)c2cn1 [Example I-313, 3-((7-chloro-1-methyl-6-((6-(methylamino)pyrazolo[1,5-a]pyrazin-3-yl)oxy)-1H-imidazo[4,5-b]pyridin-2-yl)amino)-1-isopropyl-5-(trifluoromethyl)pyridin-2(1H)-one]
< 10 | COc1c(Oc2cnn3ccncc23)cnc2nc(Nc3cc(C4CC4)cn([C@@H]4CCCOC4)c3=O)n(C)c12 (single isomer, unassigned) [Example I-72-a]
< 10 | CN1CCC[C@@H]1COc1cc(Nc2nc3ncc(Oc4cnn5ccncc45)c(Cl)c3n2C)cc(C(F)(F)F)c1 [Example I-244, (R)-7-chloro-1-methyl-N-(3-((1-methylpyrrolidin-2-yl)methoxy)-5-(trifluoromethyl)phenyl)-6-(pyrazolo[1,5-a]pyrazin-3-yloxy)-1H-imidazo[4,5-b]pyridin-2-amine]
< 10 | CO[C@H]1CCN(Cc2cc(Nc3nc4ncc(Oc5cnn6ccncc56)c(Cl)c4n3C)cc(C(F)(F)F)c2)C1 [Example I-181, (S)-7-chloro-N-(3-((3-methoxypyrrolidin-1-yl)methyl)-5-(trifluoromethyl)phenyl)-1-methyl-6-(pyrazolo[1,5-a]pyrazin-3-yloxy)-1H-imidazo[4,5-b]pyridin-2-amine]
